This is an account of results in patent US9738655B2, “Tetrahydroisoquinolines containing substituted azoles as factor XIa inhibitors” (BRISTOL-MYERS SQUIBB COMPANY, priority 2013, dated 2017).

Assay [1] deals with purified human Factor XIa (Homo sapiens (Human), UniProt P03951). Description: Factor XIa enzyme inhibition assay (chromogenic substrate S-2366).
Assay [2] concerns the target purified human plasma kallikrein (Homo sapiens (Human), UniProt P03952). Put plainly: Plasma kallikrein enzyme inhibition assay (chromogenic substrate S-2302). The assay is classed as biochemical.
The mark [3] stands for this setting: read-out: Factor XIa Ki, measured at 25° C.
[4] abbreviates: measured at 25° C. (no asterisk).

Where a name gives a salt, the structure may show the parent alone. Read-outs that look alike come from different tables or passages of the source.

Sequence of purified human Factor XIa (P03951 388-625): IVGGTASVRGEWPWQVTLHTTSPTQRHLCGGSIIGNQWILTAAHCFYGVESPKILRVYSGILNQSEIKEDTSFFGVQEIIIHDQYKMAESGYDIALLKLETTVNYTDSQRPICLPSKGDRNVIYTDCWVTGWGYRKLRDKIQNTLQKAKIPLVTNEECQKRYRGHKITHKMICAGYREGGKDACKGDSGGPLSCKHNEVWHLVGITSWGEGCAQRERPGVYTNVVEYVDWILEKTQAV
Sequence of purified human Factor XIa (P03951 19-387 partner): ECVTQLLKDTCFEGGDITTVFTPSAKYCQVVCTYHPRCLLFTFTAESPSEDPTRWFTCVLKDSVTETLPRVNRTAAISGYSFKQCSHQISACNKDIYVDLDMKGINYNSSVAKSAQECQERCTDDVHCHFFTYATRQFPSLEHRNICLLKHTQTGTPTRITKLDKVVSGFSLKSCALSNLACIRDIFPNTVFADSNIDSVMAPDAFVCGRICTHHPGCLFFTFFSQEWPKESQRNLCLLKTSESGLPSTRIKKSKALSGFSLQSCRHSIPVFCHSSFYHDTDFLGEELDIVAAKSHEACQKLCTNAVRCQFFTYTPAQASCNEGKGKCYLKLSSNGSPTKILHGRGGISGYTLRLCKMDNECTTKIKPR
Sequence of purified human plasma kallikrein (P03952 391-638): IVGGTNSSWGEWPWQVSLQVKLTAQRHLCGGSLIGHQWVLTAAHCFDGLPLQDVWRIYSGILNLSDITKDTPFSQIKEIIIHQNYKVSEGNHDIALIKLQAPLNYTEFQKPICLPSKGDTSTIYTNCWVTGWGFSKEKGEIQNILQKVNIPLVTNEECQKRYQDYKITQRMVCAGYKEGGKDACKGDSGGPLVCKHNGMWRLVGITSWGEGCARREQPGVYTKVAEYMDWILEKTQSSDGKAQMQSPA
Sequence of purified human plasma kallikrein (P03952 20-390 partner): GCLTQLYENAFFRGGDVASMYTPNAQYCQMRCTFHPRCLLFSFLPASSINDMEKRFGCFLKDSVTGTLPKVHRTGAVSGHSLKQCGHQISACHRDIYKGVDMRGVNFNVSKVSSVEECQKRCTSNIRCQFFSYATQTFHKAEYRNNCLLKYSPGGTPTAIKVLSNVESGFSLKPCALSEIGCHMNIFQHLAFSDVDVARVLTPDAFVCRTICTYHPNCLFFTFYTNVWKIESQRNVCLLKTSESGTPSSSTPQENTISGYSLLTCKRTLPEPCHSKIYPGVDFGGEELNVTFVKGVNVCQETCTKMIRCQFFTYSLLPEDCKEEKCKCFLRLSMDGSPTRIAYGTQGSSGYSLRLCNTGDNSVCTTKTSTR

The term Ki denotes a measure of affinity in units of concentration, obtained from inhibition or displacement. As for `CN1CCN(c2cccc3c2CCN(C(=O)c2cn(-c4cccc(Cl)c4F)nn2)[C@H]3C(=O)Nc2ccc(C(=O)O)cc2)CC1=O` [Example 288, (R)-4-(2-(1-(3-chloro-2-fluorophenyl)-1H-1,2,3-triazole-4-carbonyl)-5-(4-methyl-3-oxopiperazin-1-yl)-1,2,3,4-tetrahydroisoquinoline-1-carboxamido)benzoic acid, TFA salt], the values for the Ki in assay [1] (setting [3]) and in assay [2] (setting [4]) were 155 nM and 824 nM, respectively.
In the case of `CN1CCN(c2cccc3c2CCN(C(=O)c2cnn(-c4cccc(Cl)c4F)c2N)C3C(=O)Nc2ccc(C(=O)O)cc2)CC1=O` (centres unmarked) [Example 318, 4-(2-(5-Amino-1-(3-chloro-2-fluorophenyl)-1H-pyrazole-4-carbonyl)-5-(4-methyl-3-oxopiperazin-1-yl)-1,2,3,4-tetrahydroisoquinoline-1-carboxamido)benzoic acid, TFA salt], the results for the Ki in assay [1] (setting [3]) and in assay [2] (setting [4]) were less than 5 nM and 21.1 nM, respectively.
As for `COC1CCN(c2cccc3c2CCN(C(=O)c2ccnc(-c4cccc(Cl)c4F)c2)C3C(=O)Nc2ccc(C(=O)O)cc2)CC1` (centres unmarked) [Example 324, 4-(2-(2-(3-Chloro-2-fluorophenyl)isonicotinoyl)-5-(4-methoxypiperidin-1-yl)-1,2,3,4-tetrahydroisoquinoline-1-carboxamido)benzoic acid, 2 TFA salt], the Ki in assay [1] (setting [3]) was 37.1 nM; in assay [2] (setting [4]) it was 958 nM.
Regarding `COC1CCN(c2cccc3c2CCN(C(=O)[C@H]2CC(c4cccc(Cl)c4F)=NO2)[C@H]3C(=O)Nc2ccccc2F)CC1` (single isomer, unassigned) [Example 236, TFA salt], the Ki was 454 nM in assay [1] and more than 4340 nM in assay [2] (measured at 37° C. (*)).
Consider “4-(2-(3-Amino-1-(3-chloro-2-fluorophenyl)-1H-pyrazole-4-carbonyl)-5-(4-(2-(dimethylamino)ethoxy)piperidin-1-yl)-1,2,3,4-tetrahydroisoquinoline-1-carboxamido)benzoic acid, 2 TFA salt [Example 319]”, for which the Ki was less than 5 nM in assay [1] (setting [3]) and 6.41 nM in assay [2] (setting [4]).
For `Cc1ncn(-c2cccc3c2CCN(C(=O)[C@H]2CC(c4cccc(Cl)c4F)=NO2)[C@H]3C(=O)Nc2ccc(C(=O)O)cc2)n1` [Example 251, 4-((R)-2-((R)-3-(3-Chloro-2-fluorophenyl)-4,5-dihydroisoxazole-5-carbonyl)-5-(3-methyl-1H-1,2,4-triazol-1-yl)-1,2,3,4-tetrahydroisoquinoline-1-carboxamido)benzoic acid, TFA salt], the Ki turned out to be 14.7 nM in assay [1] (setting [3]) and 601 nM in assay [2] (measured at 37° C. (*)).
For the compound `O=C1CCC2(CCN(c3cccc4c3CCN(C(=O)c3cnn(-c5cccc(Cl)c5F)c3)C4C(=O)Nc3ccc(C(=O)O)cc3)CC2)O1` (centres unmarked) [Example 75, 4-(2-(1-(3-chloro-2-fluorophenyl)-1H-pyrazole-4-carbonyl)-5-(2-oxo-1-oxa-8-azaspiro[4.5]-decan-8-yl)-1,2,3,4-tetrahydroisoquinoline-1-carboxamido)benzoic acid, TFA salt], the Ki in assay [1] (setting [3]) was less than 5 nM; in assay [2] (setting [4]), 25.8 nM.
As to `COC1CCN(c2cccc3c2CCN(C(=O)c2cn(-c4cccc(Cl)c4F)nc2O)C3C(=O)Nc2ccc(C(=O)O)cc2)CC1` (racemic) [Example 264, 4-(2-(1-(3-chloro-2-fluorophenyl)-3-hydroxy-1H-pyrazole-4-carbonyl)-5-(4-methoxypiperidin-1-yl)-1,2,3,4-tetrahydroisoquinoline-1-carboxamido)benzoic acid, TFA salt], the figures for the Ki in assay [1] and in assay [2] (setting [4]) were less than 5 nM and 11.1 nM, respectively.
Turning to `O=C(O)c1ccc(NC(=O)C2c3cccc(-c4cncc(F)c4)c3CCN2C(=O)c2cn(-c3cccc(Cl)c3F)nn2)cc1` (centres unmarked) [Example 35, 4-(2-(1-(3-chloro-2-fluorophenyl)-1H-1,2,3-triazole-4-carbonyl)-5-(5-fluoropyridin-3-yl)-1.2,3,4-tetrahydroisoquinoline-1-carboxamido)benzoic acid, TFA salt], the Ki in assay [1] (setting [3]) was less than 5 nM; in assay [2] (setting [4]), 22.9 nM.
Take `O=C(Nc1ccc(-c2ncn[nH]2)cc1)C1c2cccc(-c3cncnc3)c2CCN1C(=O)c1cn(-c2cccc(Cl)c2F)nn1` (centres unmarked) [Example 131, N-(4-(1H-1,2,4-triazol-5-yl)phenyl)-2-(1-(3-chloro-2-fluorophenyl)-1H-1,2,3-triazole-4-carbonyl)-5-(pyrimidin-5-yl)-1,2,3,4-tetrahydroisoquinoline-1-carboxamide, TFA salt]: the results for the Ki in assay [1] (setting [3]) and in assay [2] (measured at 37° C. (*)) were less than 5 nM and 60.3 nM, respectively.
With `O=C(NC12CCC(C(=O)O)(CC1)CC2)[C@@H]1c2cccc(-c3cncnc3)c2CCN1C(=O)c1cn(-c2cccc(Cl)c2F)nn1` (single isomer, unassigned; enantiomer a) [Example 144, 4-(2-{[1-(3-Chloro-2-fluorophenyl)-1H-1,2,3-triazol-4-yl]carbonyl}-5-(pyrimidin-5-yl)-1,2,3,4-tetrahydroisoquinoline-1-amido)bicyclo[2.2.2]octane-1-carboxylic acid, 1 TFA (enantiomer A)], the Ki came out at 3030 nM in assay [1] (setting [3]) and 11600 nM in assay [2] (measured at 37° C. (*)).
Regarding `CC1(O)CCN(c2cccc3c2CCN(C(=O)c2cn(-c4cccc(Cl)c4F)nn2)C3C(=O)Nc2ccc(C(=O)O)cc2)CC1` (centres unmarked) [Example 67, 4-(2-(1-(3-chloro-2-fluorophenyl)-1H-1,2,3-triazole-4-carbonyl)-5-(4-hydroxy-4-methylpiperidin-1-yl)-1,2,3,4-tetrahydroisoquinoline-1-carboxamido)benzoic acid, TFA salt], the Ki in assay [1] (setting [3]) is less than 5 nM; in assay [2] (setting [4]), 7.17 nM.
For the compound `COC1CCN(c2cccc3c2CCN(C(=O)c2cn(-c4c(F)ccc(Cl)c4F)cn2)C3C(=O)Nc2ccc(C(=O)O)cc2)CC1` (racemic) [Example 312, 4-(2-(1-(3-chloro-2,6-difluorophenyl)-1H-imidazole-4-carbonyl)-5-(4-methoxypiperidin-1-yl)-1,2,3,4-tetrahydroisoquinoline-1-carboxamido)benzoic acid, TFA salt], the Ki in assay [1] was less than 5 nM; in assay [2] (setting [4]), 27.3 nM.
Consider `COC1CCN(c2cccc3c2CCN(C(=O)[C@H]2CC(c4cccc(Cl)c4F)=NO2)[C@H]3C(=O)Nc2ccc(C(=O)O)cc2F)CC1` (single isomer, unassigned) [Example 244, TFA salt], for which the values for the Ki in assay [1] and in assay [2] (measured at 37° C. (*)) were 38.7 nM and 635 nM, respectively.
`O=C(O)c1ccc(NC(=O)C2c3cccc(Br)c3CCN2C(=O)c2cn(-c3cccc(Cl)c3F)nn2)cc1` (centres unmarked) [Example 110, 4-(5-Bromo-2-(1-(3-chloro-2-fluorophenyl)-1H-1,2,3-triazole-4-carbonyl)-1,2,3,4-tetrahydroisoquinoline-1-carboxamido)benzoic acid]: the Ki in assay [1] (setting [3]) is 72.7 nM; in assay [2] (setting [4]), 23 nM.
Regarding `CNC(=O)c1ccc(-c2cccc3c2CCN(C(=O)c2cn(-c4cccc(Cl)c4F)nn2)[C@@H]3C(=O)Nc2ccc(C(=O)O)cc2)cn1` [Example 44, (S)-4-(2-(1-(3-Chloro-2-fluorophenyl)-1H-1,2,3-triazole-4-carbonyl)-5-(6-(methylcarbamoyl)pyridin-3-yl)-1,2,3,4-tetrahydroisoquinoline-1-carboxamido)benzoic acid, TFA salt], the Ki in assay [1] (setting [3]) was less than 5 nM; in assay [2] (setting [4]), 3.28 nM.
